Test system: C57BL/6 female mice
Experiment: Bleomycin-induced pulmonary fibrosis and collagen accumulation
Type: in vivo
Details: 0.075 Unit/mouse intratracheal; most impressive 3 weeks after administration
Description: Animals were anesthetized, a median sternotomy was performed, and right heart perfusion was accomplished with calcium and magnesium-free phosphate-buffered saline (PBS). The heart and lungs were then removed en bloc. The right lung was frozen in liquid nitrogen and stored at −80° C. until used. Collagen content was determined by quantifying total soluble collagen using the Sircol Collagen Assay kit (Biocolor) according to the manufacturer's instructions. The data is expressed as the collagen content of the entire right lung.
The lungs were removed en bloc as described above, inflated at 25 cm pressure with PBS containing 0.5% low melting point agarose gel, fixed, embedded in paraffin, sectioned and stained. Hematoxylin and eosin, and Mallory's trichrome stains were performed in the Research Histology Laboratory of the Department of Pathology at the Yale University School of Medicine.
Bleomycin (0.075 Unit/mouse) or vehicle control were administered to C57BL/6 female mice as previously described by Jiang et al. (2004, J Clin Invest. 114:291-299).
Studies were also undertaken to determine if the biology of SEMA 7A that was defined using the Tg modeling system was also relevant to fibrotic responses that were induced by other stimuli. […]

Bleomycin
Pulmonary fibrosis and collagen accumulation: significant increase
